Source: ChEMBL document CHEMBL1201862, “PubChem BioAssay data set” (2004)

Columns and labels:
Streptococcus = test: Luminescence Microorganism-Based Dose Response Follow up to Identify Compounds Cytotoxic to Streptococcus. [Related pubchem assays: 1677 (Project Summary), 1915, 1914, 1902 (Retest at Dose), 1900 (Counter Screen), 1662 (Primary HTS)]; format: functional, organism-based
[1] = target: T1, Alkaline phosphatase, tissue-nonspecific isozyme (Homo sapiens, UniProt P05186)
T1 sequence (P05186 whole entry): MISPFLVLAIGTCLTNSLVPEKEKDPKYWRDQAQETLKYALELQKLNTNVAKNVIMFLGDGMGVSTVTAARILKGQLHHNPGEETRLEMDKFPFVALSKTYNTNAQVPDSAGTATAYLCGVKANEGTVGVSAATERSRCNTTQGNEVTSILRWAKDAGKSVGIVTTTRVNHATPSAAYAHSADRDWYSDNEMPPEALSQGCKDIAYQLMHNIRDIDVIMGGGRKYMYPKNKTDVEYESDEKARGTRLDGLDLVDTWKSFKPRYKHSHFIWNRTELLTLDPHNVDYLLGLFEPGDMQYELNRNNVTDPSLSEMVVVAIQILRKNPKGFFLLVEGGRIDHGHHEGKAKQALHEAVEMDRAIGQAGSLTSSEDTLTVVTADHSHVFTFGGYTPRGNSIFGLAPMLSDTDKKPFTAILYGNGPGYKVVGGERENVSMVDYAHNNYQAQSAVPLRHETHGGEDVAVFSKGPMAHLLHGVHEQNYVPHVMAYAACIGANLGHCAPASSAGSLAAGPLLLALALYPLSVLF

Cytochrome P450 2D6 = Cytochrome P450 2D6 (Homo sapiens, UniProt P10635);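 further: CYP2D6 member of a cytochrome P450 panel assay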
Cytochrome P450 2C9 = Cytochrome P450 2C9 (Homo sapiens, UniProt P11712)
Sequence of Cytochrome P450 2C9 (P11712 whole entry): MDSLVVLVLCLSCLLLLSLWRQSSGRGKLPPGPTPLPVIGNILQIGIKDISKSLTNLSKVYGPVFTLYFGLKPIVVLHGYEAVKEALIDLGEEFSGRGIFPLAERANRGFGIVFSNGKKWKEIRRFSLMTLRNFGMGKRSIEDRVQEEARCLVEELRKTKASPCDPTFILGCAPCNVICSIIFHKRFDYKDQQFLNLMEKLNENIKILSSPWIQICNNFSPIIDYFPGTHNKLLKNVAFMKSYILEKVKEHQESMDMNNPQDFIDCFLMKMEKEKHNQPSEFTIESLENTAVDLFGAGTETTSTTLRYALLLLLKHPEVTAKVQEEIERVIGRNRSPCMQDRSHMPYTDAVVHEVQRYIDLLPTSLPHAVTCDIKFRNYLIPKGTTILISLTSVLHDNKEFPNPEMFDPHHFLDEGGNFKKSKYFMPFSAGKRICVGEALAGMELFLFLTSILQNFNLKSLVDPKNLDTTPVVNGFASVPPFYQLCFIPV

Sequence of Cytochrome P450 2D6 (P10635 whole entry): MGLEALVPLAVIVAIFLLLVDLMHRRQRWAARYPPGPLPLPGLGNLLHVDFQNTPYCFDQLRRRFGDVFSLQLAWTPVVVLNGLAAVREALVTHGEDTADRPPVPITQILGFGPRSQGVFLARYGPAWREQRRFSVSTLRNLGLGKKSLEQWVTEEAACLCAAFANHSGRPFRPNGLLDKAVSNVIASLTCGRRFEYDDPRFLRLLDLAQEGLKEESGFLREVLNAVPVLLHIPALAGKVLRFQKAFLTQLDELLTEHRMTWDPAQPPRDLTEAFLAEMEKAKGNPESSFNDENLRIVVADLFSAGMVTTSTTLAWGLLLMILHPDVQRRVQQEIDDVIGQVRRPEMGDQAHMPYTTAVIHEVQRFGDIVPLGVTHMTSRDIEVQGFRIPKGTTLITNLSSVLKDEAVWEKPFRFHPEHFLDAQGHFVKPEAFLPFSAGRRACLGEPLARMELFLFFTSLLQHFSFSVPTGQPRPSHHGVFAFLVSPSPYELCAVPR

Row | SMILES | EC50 (Streptococcus) | EC50 [1] | AC50 (Cytochrome P450 2D6) | AC50 (Cytochrome P450 2C9)
1 | COc1cccc(C(=O)n2c3ccccc3c3ccccc32)c1 | > 500 µM (not active) |  |  | 
2 | CCN=C(S)NNC(=O)CCn1c2ccccc2c2ccccc21 |  | > 100 µM (not active) | 14.1 µM (inconclusive) | inconclusive
